Experimental data from PMC8429728, “TNK1 is a ubiquitin-binding and 14-3-3-regulated kinase that can be targeted to block tumor growth” (Nature Communications, 2021).
Like-named read-outs stand apart in the source and are kept apart here.

Experiments:
Assay in all cases: biochemical
Set-up in all cases: Reaction Biology 371-kinase panel at Km ATP, per cent enzyme activity relative to DMSO, single dose in duplicate
CDC7/DBF4 = CDC7/DBF4 (Homo sapiens, UniProt O00311); settings: duplicate measurements, Km ATP
Summary of the method: (§1)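 Percent kinase activity relative to vehicle (DMSO) is reported for a 371-kinase in vitro panel at 300 nM compound; IC50 values derive from variable-slope sigmoidal fits with the lower plateau fixed at 0.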

MASTL = MASTL (Homo sapiens, UniProt Q96GX5); settings: duplicate measurements, Km ATP
Summary of the method: as §1

ZAK/MLTK = molecular target: T1, ZAK/MLTK (Homo sapiens, UniProt Q9NYL2); settings: duplicate measurements, Km ATP
T1 construct: gene MAP3K20
Summary of the method: as §1

ARAF = molecular target: T2, ARAF (Homo sapiens, UniProt P10398); settings: duplicate measurements, Km ATP
T2 sequence (P10398 1-606): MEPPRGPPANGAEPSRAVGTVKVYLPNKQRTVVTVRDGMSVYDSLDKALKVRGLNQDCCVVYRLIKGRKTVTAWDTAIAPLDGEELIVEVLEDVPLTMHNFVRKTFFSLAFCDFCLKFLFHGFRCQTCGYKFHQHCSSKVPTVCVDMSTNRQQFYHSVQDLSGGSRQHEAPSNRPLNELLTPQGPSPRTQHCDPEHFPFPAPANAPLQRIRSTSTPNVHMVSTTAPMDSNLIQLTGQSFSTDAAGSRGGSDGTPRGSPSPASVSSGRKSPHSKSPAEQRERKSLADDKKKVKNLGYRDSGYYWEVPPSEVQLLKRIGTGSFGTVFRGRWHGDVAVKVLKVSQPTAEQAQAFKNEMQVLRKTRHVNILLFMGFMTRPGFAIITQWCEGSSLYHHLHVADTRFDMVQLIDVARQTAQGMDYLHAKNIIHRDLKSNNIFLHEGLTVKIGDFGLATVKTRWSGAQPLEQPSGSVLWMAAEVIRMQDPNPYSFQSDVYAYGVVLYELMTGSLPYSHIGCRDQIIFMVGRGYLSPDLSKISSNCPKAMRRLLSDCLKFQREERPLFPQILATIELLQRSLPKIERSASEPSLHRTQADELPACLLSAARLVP
Summary of the method: as §1

GRK3 = GRK3 (Homo sapiens, UniProt P35626); settings: duplicate measurements, Km ATP
Summary of the method: as §1

PDK1/PDPK1 = PDK1/PDPK1 (Homo sapiens, UniProt O15530); settings: duplicate measurements, Km ATP
Summary of the method: as §1

BRSK2 = BRSK2 (Homo sapiens, UniProt Q8IWQ3); settings: duplicate measurements, Km ATP
Summary of the method: as §1

NEK4 = NEK4 (Homo sapiens, UniProt P51957); settings: duplicate measurements, Km ATP; read-out: % Enzyme Activity (relative to DMSO controls) / TP-0005801 (0.3µM) / Data 1
Summary of the method: as §1

JAK3 = JAK3 (Homo sapiens, UniProt P52333); settings: duplicate measurements, Km ATP
Summary of the method: as §1

PKCmu/PRKD1 = PKCmu/PRKD1 (Homo sapiens, UniProt Q15139); settings: duplicate measurements, Km ATP
Summary of the method: as §1

LIMK1 = LIMK1 (Homo sapiens, UniProt P53667); settings: duplicate measurements, Km ATP; read-out: % Enzyme Activity (relative to DMSO controls) / TP-0005801 (0.3µM) / Data 1
Summary of the method: as §1

PLK4/SAK = PLK4/SAK (Homo sapiens, UniProt O00444); settings: duplicate measurements, Km ATP
Summary of the method: as §1

P38a/MAPK14 = P38a/MAPK14 (Homo sapiens, UniProt Q16539); settings: duplicate measurements, Km ATP
Summary of the method: as §1

STK16 = STK16 (Homo sapiens, UniProt O75716); settings: duplicate measurements, Km ATP
Summary of the method: as §1

ZAP70 = ZAP70 (Homo sapiens, UniProt P43403); settings: duplicate measurements, Km ATP
Summary of the method: as §1

DMPK2 = molecular target: T3, DMPK2 (Homo sapiens, UniProt Q6DT37); settings: duplicate measurements, Km ATP; read-out: % Enzyme Activity (relative to DMSO controls) / TP-0005801 (0.3µM) / Data 1
T3 construct: gene CDC42BPG
Summary of the method: as §1

[1] = read-out: % Enzyme Activity (relative to DMSO controls) / TP-0005801 (0.3µM) / Data 1
[2] = read-out: % Enzyme Activity (relative to DMSO controls) / TP-0005801 (0.3µM) / Data 2

Chain of PKCmu/PRKD1 (Q15139 whole entry): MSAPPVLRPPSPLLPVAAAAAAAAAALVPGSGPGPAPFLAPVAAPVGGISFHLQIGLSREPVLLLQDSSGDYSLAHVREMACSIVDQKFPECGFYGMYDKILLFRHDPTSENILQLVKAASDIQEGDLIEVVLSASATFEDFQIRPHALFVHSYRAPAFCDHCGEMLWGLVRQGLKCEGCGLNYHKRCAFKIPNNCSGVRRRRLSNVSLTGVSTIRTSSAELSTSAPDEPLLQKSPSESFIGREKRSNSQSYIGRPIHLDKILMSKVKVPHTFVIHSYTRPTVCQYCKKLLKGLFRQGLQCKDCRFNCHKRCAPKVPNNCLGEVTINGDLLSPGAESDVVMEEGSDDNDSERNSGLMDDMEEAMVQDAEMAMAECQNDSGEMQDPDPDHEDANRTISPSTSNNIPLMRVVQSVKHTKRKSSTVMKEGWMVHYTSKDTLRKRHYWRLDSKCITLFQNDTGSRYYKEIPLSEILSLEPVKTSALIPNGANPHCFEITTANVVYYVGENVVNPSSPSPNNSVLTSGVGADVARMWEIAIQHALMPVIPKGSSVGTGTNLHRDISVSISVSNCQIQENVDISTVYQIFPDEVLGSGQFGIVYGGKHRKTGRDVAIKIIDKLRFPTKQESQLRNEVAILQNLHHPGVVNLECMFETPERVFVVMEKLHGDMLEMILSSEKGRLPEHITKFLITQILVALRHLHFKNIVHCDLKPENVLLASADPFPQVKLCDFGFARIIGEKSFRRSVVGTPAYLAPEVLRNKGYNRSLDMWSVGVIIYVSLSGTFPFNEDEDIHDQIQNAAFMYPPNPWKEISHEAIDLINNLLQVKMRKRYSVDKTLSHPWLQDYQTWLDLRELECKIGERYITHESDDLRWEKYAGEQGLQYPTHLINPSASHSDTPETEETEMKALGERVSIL
Chain of GRK3 (P35626 whole entry): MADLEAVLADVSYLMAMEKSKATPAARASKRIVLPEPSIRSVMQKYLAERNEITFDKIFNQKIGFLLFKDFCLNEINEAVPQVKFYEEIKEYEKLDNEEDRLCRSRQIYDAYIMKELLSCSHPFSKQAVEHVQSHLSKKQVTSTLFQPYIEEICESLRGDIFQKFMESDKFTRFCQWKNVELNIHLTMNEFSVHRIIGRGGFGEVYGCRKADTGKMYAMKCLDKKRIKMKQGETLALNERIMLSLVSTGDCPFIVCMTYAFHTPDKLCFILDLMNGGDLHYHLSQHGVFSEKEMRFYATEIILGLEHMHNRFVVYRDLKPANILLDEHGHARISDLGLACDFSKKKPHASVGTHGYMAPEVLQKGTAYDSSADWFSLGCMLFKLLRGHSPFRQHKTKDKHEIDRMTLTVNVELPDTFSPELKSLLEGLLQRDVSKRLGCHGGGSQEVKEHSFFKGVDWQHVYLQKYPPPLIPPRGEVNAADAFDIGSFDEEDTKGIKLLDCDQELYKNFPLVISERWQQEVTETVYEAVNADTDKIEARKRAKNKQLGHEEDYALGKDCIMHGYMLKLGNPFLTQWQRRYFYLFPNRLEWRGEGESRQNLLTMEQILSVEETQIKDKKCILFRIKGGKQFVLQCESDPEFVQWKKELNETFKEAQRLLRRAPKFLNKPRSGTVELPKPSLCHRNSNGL
T1 sequence (Q9NYL2 whole entry): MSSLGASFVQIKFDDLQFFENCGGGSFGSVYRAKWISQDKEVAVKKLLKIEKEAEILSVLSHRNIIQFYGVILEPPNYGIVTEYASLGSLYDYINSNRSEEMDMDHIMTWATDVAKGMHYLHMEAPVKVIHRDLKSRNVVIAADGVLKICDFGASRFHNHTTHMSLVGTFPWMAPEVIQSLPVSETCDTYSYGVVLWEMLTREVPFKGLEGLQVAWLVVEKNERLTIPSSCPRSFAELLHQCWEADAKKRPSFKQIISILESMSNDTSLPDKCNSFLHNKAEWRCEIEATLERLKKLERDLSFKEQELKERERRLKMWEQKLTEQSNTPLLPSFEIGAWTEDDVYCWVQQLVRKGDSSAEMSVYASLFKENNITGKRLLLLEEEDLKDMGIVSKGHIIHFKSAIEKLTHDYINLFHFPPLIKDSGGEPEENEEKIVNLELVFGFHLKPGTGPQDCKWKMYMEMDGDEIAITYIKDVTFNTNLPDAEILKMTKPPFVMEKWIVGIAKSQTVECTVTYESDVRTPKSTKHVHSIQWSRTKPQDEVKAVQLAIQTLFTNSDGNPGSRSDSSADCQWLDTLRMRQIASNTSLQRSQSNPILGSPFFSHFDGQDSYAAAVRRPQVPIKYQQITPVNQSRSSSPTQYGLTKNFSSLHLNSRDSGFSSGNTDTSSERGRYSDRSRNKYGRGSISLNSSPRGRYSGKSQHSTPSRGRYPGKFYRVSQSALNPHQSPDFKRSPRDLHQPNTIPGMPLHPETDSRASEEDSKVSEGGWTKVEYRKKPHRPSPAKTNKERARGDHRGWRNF
Chain of STK16 (O75716 whole entry): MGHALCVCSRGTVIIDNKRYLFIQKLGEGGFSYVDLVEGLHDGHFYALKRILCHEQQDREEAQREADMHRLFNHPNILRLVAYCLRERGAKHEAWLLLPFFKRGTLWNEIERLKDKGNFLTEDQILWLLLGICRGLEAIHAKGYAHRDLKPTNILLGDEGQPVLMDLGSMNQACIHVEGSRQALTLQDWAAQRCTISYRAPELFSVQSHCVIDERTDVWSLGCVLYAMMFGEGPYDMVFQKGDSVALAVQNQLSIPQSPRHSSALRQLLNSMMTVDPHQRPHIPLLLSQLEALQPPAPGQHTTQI
Chain of P38a/MAPK14 (Q16539 whole entry): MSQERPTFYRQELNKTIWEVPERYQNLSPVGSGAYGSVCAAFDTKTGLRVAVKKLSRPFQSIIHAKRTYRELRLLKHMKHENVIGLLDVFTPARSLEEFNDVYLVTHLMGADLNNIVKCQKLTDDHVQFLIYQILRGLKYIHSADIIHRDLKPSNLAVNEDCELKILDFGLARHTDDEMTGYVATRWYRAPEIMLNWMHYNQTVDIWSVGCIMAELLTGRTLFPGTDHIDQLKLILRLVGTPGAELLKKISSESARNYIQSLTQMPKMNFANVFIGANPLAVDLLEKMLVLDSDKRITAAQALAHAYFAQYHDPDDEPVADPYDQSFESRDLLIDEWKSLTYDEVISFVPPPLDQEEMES
Chain of MASTL (Q96GX5 whole entry): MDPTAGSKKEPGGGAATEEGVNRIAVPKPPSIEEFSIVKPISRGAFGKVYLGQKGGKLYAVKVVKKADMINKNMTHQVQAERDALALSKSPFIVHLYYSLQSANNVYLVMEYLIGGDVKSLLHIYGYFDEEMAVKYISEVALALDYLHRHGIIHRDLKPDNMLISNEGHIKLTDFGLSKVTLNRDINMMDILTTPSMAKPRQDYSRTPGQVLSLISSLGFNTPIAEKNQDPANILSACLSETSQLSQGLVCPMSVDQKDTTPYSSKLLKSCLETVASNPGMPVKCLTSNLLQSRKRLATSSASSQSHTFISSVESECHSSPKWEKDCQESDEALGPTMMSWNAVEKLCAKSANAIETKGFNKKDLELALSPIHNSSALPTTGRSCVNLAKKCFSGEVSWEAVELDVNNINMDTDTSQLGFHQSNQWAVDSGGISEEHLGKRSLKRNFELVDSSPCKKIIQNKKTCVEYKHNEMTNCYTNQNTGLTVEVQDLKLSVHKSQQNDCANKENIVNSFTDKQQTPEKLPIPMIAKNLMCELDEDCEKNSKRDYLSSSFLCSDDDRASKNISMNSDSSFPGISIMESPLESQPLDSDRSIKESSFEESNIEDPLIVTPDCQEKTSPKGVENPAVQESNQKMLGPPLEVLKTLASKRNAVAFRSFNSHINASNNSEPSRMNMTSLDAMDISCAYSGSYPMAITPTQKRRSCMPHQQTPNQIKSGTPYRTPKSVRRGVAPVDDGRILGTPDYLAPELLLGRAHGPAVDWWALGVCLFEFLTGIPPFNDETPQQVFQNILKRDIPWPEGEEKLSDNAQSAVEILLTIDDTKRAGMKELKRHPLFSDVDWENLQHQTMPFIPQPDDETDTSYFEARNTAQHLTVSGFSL
Chain of ZAP70 (P43403 whole entry): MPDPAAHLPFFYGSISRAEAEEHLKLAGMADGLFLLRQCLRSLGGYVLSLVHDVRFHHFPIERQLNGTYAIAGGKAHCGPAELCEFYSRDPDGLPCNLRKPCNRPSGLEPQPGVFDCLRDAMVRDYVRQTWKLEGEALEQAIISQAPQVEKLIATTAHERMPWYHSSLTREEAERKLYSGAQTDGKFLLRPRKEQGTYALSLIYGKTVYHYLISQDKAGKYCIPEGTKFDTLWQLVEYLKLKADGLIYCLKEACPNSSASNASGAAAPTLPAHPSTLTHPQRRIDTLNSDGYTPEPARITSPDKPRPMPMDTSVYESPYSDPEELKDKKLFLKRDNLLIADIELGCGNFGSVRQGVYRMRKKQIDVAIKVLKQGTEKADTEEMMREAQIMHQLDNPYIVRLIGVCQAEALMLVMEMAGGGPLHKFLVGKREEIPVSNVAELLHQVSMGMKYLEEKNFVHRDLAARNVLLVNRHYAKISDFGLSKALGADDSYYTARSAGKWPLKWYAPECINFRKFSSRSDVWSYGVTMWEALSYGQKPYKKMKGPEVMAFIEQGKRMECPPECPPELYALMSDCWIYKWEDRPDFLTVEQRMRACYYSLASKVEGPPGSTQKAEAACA

COc1cc(N2CCN(C)CC2)c(C)cc1Nc1ncc(Br)c(Nc2cccnc2N(C)C)n1 [TP-5801]
remaining activity at 0.3 µM (CDC7/DBF4; [1]): 124% | remaining activity at 0.3 µM (CDC7/DBF4; [2]): 123% | remaining activity at 0.3 µM (MASTL; [1]): 97% | remaining activity at 0.3 µM (MASTL; [2]): 96.1% | remaining activity at 0.3 µM (ZAK/MLTK; [1]): 103% | remaining activity at 0.3 µM (ZAK/MLTK; [2]): 101% | remaining activity at 0.3 µM (ARAF; [1]): 88.1% | remaining activity at 0.3 µM (ARAF; [2]): 82.3% | remaining activity at 0.3 µM (GRK3; [1]): 93.9% | remaining activity at 0.3 µM (GRK3; [2]): 93% | remaining activity at 0.3 µM (PDK1/PDPK1; [1]): 89.9% | remaining activity at 0.3 µM (PDK1/PDPK1; [2]): 89.6% | remaining activity at 0.3 µM (BRSK2; [1]): 119% | remaining activity at 0.3 µM (BRSK2; [2]): 116% | remaining activity at 0.3 µM (NEK4): 122% | remaining activity at 0.3 µM (JAK3; [1]): 29.3% | remaining activity at 0.3 µM (JAK3; [2]): 28.7% | remaining activity at 0.3 µM (PKCmu/PRKD1; [1]): 67.7% | remaining activity at 0.3 µM (PKCmu/PRKD1; [2]): 67.3% | remaining activity at 0.3 µM (LIMK1): 104% | remaining activity at 0.3 µM (PLK4/SAK; [1]): 74.8% | remaining activity at 0.3 µM (PLK4/SAK; [2]): 72.8% | remaining activity at 0.3 µM (P38a/MAPK14; [1]): 89% | remaining activity at 0.3 µM (P38a/MAPK14; [2]): 88.1% | remaining activity at 0.3 µM (STK16; [1]): 107% | remaining activity at 0.3 µM (STK16; [2]): 105% | remaining activity at 0.3 µM (ZAP70; [1]): 95.5% | remaining activity at 0.3 µM (ZAP70; [2]): 91.3% | remaining activity at 0.3 µM (DMPK2): 109%
